Series [1] concerns experimental animal model of osteoarthritis (OA). In words: Slope walking test in osteoarthritis rat model. The series is classed as in vivo, Wistar rats.
Procedure: Healthy adult male Wistar rats (150-200 g) were used for the study, with water and food ad libitum, at a constant temperature of 22°C and controlled lighting (12 h light/12 h dark cycle).
As far as the dispersion procedure of the injectables is concerned, all the natural compounds were dissolved in saline solution, whereas the studied nanoparticles were mechanically grinded in a mortar and pestle set with saline solution and Tween 20 (2% w/v) and heated at 36 °C before each treatment. There were six treatments administered every 10 days.
Rats were anesthetized with chloral hydrate. The right knee joints of Group I were injected with normal saline solution and served as a control. Animals from the groups II, III, IV, V, VI, VII were injected with collagenase type II (Clostridium histolyticum). Collagenase (125 collagen digestion unit/mg) was dissolved in saline, and it was injected intra-articularly into the right knee joint twice on days 1 and 4 of the experiment (Al-Saffar, F., H. Ganabadi and S. Fakurazi. Collagenase and sodium iodoacetate-induced experimental osteoarthritis model in Sprague dawley rats. Asian J. Sci. Res. 2: 1-13, 2009). The left knees of all animals were left untreated as a control.
For the evaluation of the effectiveness and time of release of the encapsulated compounds, all animals were subjected to a series of behavioral testing in addition to the measurements of body weight and knees diameter change. The experimental protocol of the present study followed the combination of three different behavioral tests, which are von Frey mechanical allodynia test, grid walking and slope walking test. Behavioral tests are performed in three phases, at the beginning before the start of treatment, in the middle of treatment (approximately 35-40 days) and at the end (after the 70th day).
Walking on an inclined plane was used for the clinical assessment of motor function in rats after induction of OA. The method consists of placing the animal on an inclined plane and then measuring the time (seconds) needed for the animals to go up the walking tray.
Series [2] has as its target T1, soybean lipoxygenase (LOX) (Glycine max, UniProt P08170).
T1 sequence (P08170 1-839): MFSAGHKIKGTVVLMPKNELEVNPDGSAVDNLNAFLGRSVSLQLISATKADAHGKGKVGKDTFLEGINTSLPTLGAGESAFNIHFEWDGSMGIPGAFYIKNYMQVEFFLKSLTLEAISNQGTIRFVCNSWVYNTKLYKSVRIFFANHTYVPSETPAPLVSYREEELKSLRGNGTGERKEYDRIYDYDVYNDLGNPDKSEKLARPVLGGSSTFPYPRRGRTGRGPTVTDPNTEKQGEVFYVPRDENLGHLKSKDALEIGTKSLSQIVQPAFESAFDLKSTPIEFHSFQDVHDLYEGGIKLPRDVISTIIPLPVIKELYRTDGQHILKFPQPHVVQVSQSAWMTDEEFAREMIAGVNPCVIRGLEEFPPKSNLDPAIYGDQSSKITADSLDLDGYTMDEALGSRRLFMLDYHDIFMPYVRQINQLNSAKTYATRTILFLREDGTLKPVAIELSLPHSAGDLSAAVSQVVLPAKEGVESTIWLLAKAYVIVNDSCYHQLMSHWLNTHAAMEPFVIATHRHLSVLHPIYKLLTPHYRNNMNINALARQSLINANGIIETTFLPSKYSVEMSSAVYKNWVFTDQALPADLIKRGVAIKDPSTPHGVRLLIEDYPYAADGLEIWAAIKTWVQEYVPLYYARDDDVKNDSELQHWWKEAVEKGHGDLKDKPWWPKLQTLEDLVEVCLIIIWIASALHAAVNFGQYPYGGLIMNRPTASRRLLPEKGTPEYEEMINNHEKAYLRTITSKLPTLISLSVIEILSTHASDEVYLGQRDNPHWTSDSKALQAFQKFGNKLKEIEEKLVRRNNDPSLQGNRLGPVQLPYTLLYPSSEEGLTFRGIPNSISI
In words: Soybean lipoxygenase inhibition assay in vitro. In kind it is biochemical. On the procedure: The soybean lipoxygenase (LOX) test is a representative assay for anti-inflammatory activity since LOX is implicated in the inflammatory cascade. LOXs contain a "non-heme" iron per molecule in the catalytic active site as high-spin Fe^+2 in the native state and high-spin Fe^+3 in the activated state. […] The inhibitory activity of several LOX inhibitors, such as phenolic derivatives, can be attributed to their chelating capacity to Fe^+3. In brief, two reaction mixtures are prepared in UV cuvettes for each sample, the first reaction mixture contains LOX solution (dissolved in Tris buffer, pH 9) and the sample under examination, whereas the second reaction mixture also contained LLA solution (dissolved in 0.9% NaCl). Both reaction mixtures were measured at room temperature at 234 nm. The inhibition of LOX was measured in the presence of the same level of DMSO, which served as control.
Table 2: Anti-inflammatory potential of the samples expressed as % inhibition of LOX

A further series has as its system MMP-13. Briefly: MMP-13 ELISA in secretions of TNFα-stimulated chondrocytes. The series is classed as cell-based, human. The conditions noted are these: for Mean % relative MMP-13 secretion (72h): co-treatment with TNFα, normalized to negative control (TNFα only). From the text: Matrix Mettaloproteinase 13 (MMP-13) is the main culprit in the destabilization of the anabolic/catabolic balance in the articular joint. MMP-13 […] balance towards catabolism and collagen II degradation which aggravates the OA pathology and is an enzyme that is secreted by chondrocytes in the extracellular environment. […] A decrease in MMP-13 levels is desirable, correlates with less degradation of cartilage and is widely used in the OA research field as a histopathological marker to evaluate amelioration of OA cellular pathology in the joint following an intervention. Finding Nanoparticles that can reduce MMP-13 levels in the assay is a promising lead for a favorable effect in a pre-clinical animal model in vivo. […] The results in Table 6 are the mean relative values from at least 3 independent repetitions of the experiments. Table 6. MMP-13 ELISA results as normalized values relative to negative control (NC, TNFα-stimulated cells without nanosystems) from 3 independent experiments. The standard deviations are omitted for simplicity. Samples' coding: S1=Naringin pure compound, S2=Naringin encapsulated in PLA nanoparticles [PLA[NAR]], S3=Naringin encapsulated in PLA nanoparticles coated with chitosan CS[PLA[NAR]], and S4=Blank PLA nanoparticles coated with chitosan, CS[PLA[---]].
On the technique in general: ELISA stands for enzyme-linked immunosorbent assay.

The test system of a further series is RAW264.7 cells. Briefly: MTT cell viability assay. The series is classed as cell-based, mouse. The settings on record: for % cell viability: 24h. The source says: The MTT (3-[4,5-dimethylthiazol-2-yl]-2,5 diphenyl tetrazolium bromide) assay is based on the ability of viable cells with active metabolism to convert the yellow MTT to a purple formazan product, which determines mitochondrial activity. The MTT formazan product agglomerates as an insoluble residuum within the cells, which can be solubilized (in this protocol with DMSO) for homogeneous measurement. Thus, any increase or decrease in the number of viable cells can be detected by measuring the formazan concentration reflected in the optical density (OD) measurement at 540 nm with a reference absorption of 720 nm. This assay is broadly used to measure the in vitro cytotoxic effects of drugs on cell lines or primary cells. For the experimental procedure a standard solution of MTT 1mg/mL in PBS was prepared which after filtration ([…] filter (Millipore, Carrigtwohill, Ireland)) was stored in the dark (4-8 °C) until use. In brief, RAW 264.7 cells were seeded in a 96-well plate at a density of 30.000 cells/ in 100 µL of medium per well. […] This was followed by incubation for 24 h, 48 h and 72 h. At the end of the incubation 10 µL of MTT was added to each well followed by incubation for 4 hours, for the formation of the formazan crystals. The formazan crystals were then dissolved by adding DMSO and stirring lightly for 30 min, after which the absorbance was measured in a plate reader at 540 nm with a reference absorbance of 720 nm. […] Table 4: % cell viability after treatment of RAW264.7 cells with the samples
A general note: Formazan colour is commonly taken as a measure of viable cells.

For the compound `C[C@@H]1O[C@@H](O[C@H]2[C@H](Oc3cc(O)c4c(c3)O[C@H](c3ccc(O)cc3)CC4=O)O[C@H](CO)[C@@H](O)[C@@H]2O)[C@H](O)[C@H](O)[C@H]1O` [S1 [NAR], Naringin], the entries for the “Slope Walking” value in series [1] (11 days (before treatment)), in series [1] (40 days (half of experimental protocol)) and in series [1] (70 days (end of experimental protocol)) were 10,3 sec, 8,9 sec and 8,6 sec, respectively. In series [2] (25 µM, 24h), this compound returned an inhibition at 25 µM of 7.1%. Further, at 50 µM the inhibition in series [2] (50 µM, 24h) was 21.2%. In series [2] (100 µM, 24h), this compound returned an inhibition at 100 µM of 44.6%. In addition, in series [2] (48 and 72 h), the “LOX inhibition at 48 and 72 h compared with 24 h (in words)” value was “no significant difference”. In addition, the figures for the “Mean % relative MMP-13 secretion (72h)” value in the series on MMP-13 (10 µM Naringin (free or encapsulated)), with MMP-13 (50 µM Naringin (free or encapsulated)) and in the series with MMP-13 (200 µM) were 110,57%, 113.28% and 102,77%, respectively. Moreover, the “decrease in MMP-13 (in words)” value in the series with MMP-13 (TNFα-stimulated chondrocytes) is on record as “did not give a detectable decrease”. In addition, the “% cell viability” value in the series on RAW264.7 cells (25 µM) and in the series with RAW264.7 cells (50 µM) was 100% in each case. Further, the “cytotoxicity / cell viability (in words)” value in the series on RAW264.7 cells (lower concentrations) is recorded as “full cell viability”.

One may read the inhibition as how much of the control response was suppressed.

(Values after patent publication EP4385495A1, “NANOSYSTEMS FOR THE ENCAPSULATION OF THERAPEUTIC AGENTS” (National Technical University of Athens, priority 2022, dated 2024).)
